Results taken from patent publication US20250049800A1, “VCP/p97 INHIBITOR FOR THE TREATMENT OF CANCER” (CASI Pharmaceuticals, Inc., priority 2021, published 2025).
Where two headings read alike, the source gives them in different places.

Tests used:
[1] = Phase I study: safety, adverse events and visual symptoms; assay type: in vivo, human
Description: Similar dosing may be used in the dose expansion part of the study. BID dosing may be also tested depending on initial PK assessments. Participants were evaluated regularly for safety assessments including physical examinations and laboratory testing. Bone marrow aspirates and/or biopsies are performed at regular intervals, including for assessment of tumor response as per 2017 European LeukemiaNet (ELN) response criteria for AML or 2006 revised International Working Group (IWG) response criteria for MDS. Peripheral blood samples are collected in Cycle 1 for intensive PK testing and PD biomarker assessments. Additional intensive PK testing is collected for any participants undergoing intra-patient dose escalation.

K48-Ub (ubiquitin) = K48-Ub (ubiquitin) biomarker in patient blood samples; assay type: in vivo, human; settings: cohorts 4 and 5; two of 5 patients showed changes
Description: (§1) Two biomarkers were assessed in patients from cohorts 4 and 5. K48-Ub (ubiquitin) and Activated Caspase 3 biomarkers were analyzed from 5 patient blood samples.

Activated Caspase 3 = Activated Caspase 3 biomarker in patient blood samples; assay type: in vivo, human; settings: cohorts 4 and 5; one patient
Description: as §1

HL-60 cell line = assay: Cell Titer-Glo viability, fixed agent + dose response agent combinations; assay type: cell-based, human; settings: for Combination:Monotherapy IC50 Ratio: HL-60; for IC50: Homo sapiens, HL-60, HL-60, read-out: IC50
Description: (§2) The additional therapeutic agents for this example were azacitidine (Cayman Chemical Cat No. 11164), decitabine (Sigma Cat No. A3656) and venetoclax (InvivoChem Cat. No. V0001).
(§3) Cell Culture: Three human acute myeloid leukemia tumor cell lines were used in this study: HL60, MV4;11 and MOLM-13. HL60 and MV4;11 were grown in IMDM base media with 20% and 10% FBS, respectively. MOLM-13 was grown in RPMI 1640 base media with 20% FBS. All culture media contained 2 mM glutamine, 100 units/mL sodium penicillin G, […] gentamicin, and 100 µg/mL streptomycin sulfate. The tumor cells were cultured in tissue culture flasks in a humidified incubator at 37° C., in an atmosphere of 5% CO2 and 95% air. Assay: Tumor cells were seeded in duplicate in a volume of 100 µL/well of media into 96-well micro-culture plates at initial densities low enough to allow for several population doublings (typically three to five) during the indicated incubation period. After a 24 hour incubation, test agents were added to each well. After 72 hours of culture with test articles, cell viability was determined using the Cell Titer-Glo® (Promega G7571) assay. Briefly, Cell Titer-Glo® (Promega G7571) reagents were equilibrated at room temperature for 30 minutes; 100 μL per well was added at endpoint (72 hours). Plates were gently shaken for two minutes and then incubated at room temperature for ten minutes prior to reading luminescence on the BMG Clariostar Plus microplate reader.
(§4) An IC50 ratio for each combination was calculated from the ratio of the combination IC50 as compared to the applicable no fixed agent (vehicle) control.

MOML-13 cell line = assay: as above; assay type: cell-based, human; settings: MOML-13; for IC50: Homo sapiens, read-out: IC50
Description: as §2, §3, §4

MV4; 11 cell line = assay: as above; assay type: cell-based, human; settings: 11; for IC50: Homo sapiens, MV4-11, MV4, read-out: IC50; for Combination:Monotherapy IC50 Ratio: MV4
Description: as §2, §3, §4

[2] = fixed agent Azacitidine - 5750 nM
[3] = fixed agent Azacitidine - 9800 nM
[4] = fixed agent Decitabine - 175 nM
[5] = fixed agent Decitabine - 1700 nM
[6] = fixed agent Venetoclax + Azacitidine - 85 nM
[7] = fixed agent Venetoclax + Azacitidine - 475 nM
[8] = fixed agent Azacitidine - 105 nM
[9] = fixed agent Azacitidine - 850 nM
[10] = fixed agent Decitabine - 2.5 nM
[11] = fixed agent Decitabine - 8.5 nM
[12] = fixed agent Venetoclax + Azacitidine - 6.5 nM
[13] = fixed agent Venetoclax + Azacitidine - 20 nM
[14] = fixed agent Azacitidine - 500 nM
[15] = fixed agent Azacitidine - 3150 nM
[16] = fixed agent Decitabine - 215 nM
[17] = fixed agent Venetoclax + Azacitidine - 50 nM

## Cc1cc2c(C(N)=O)cccc2n1-c1nc2c(c(NCc3ccccc3)n1)CCCN2 [Compound 1, 1-(4-(benzylamino)-5,6,7,8-tetrahydropyrido[2,3-d]pyrimidin-2-yl)-2-methyl-1H-indole-4-carboxamide]
[1]; cohorts dosed 25 mg to 450 mg QD
  adverse events: No adverse events were observed
[1]; highest doses
  visual adverse events at plasma exposure equivalent to CB-5083: no lasting symptoms
[1]; lower dose cohorts
  symptoms of visual impairment: No symptoms of visual impairment
[1]; lower doses
  visual adverse events at plasma exposure equivalent to CB-5083: no symptoms of visual impairment or other visual adverse events
[1]; two patients in cohort X
  visual symptoms: low-grade visual symptoms on the day of dosing that did not persist
K48-Ub (ubiquitin)
  K48-Ub (ubiquitin) biomarker, best fold change after treatment: approximately 3.5 fold
Activated Caspase 3
  Activated Caspase 3, fold increase: 9 fold
HL-60 cell line; [2]
  Combination:Monotherapy IC50 Ratio: 1.02
  IC50: 311 nM
HL-60 cell line; [3]
  Combination:Monotherapy IC50 Ratio: 0.85
  IC50: 258 nM
HL-60 cell line; [4]
  Combination:Monotherapy IC50 Ratio: 0.96
  IC50: 294 nM
HL-60 cell line; [5]
  Combination:Monotherapy IC50 Ratio: 1.06
  IC50: 322 nM
HL-60 cell line; [6]
  Combination:Monotherapy IC50 Ratio: 0.84
  IC50: 256 nM
HL-60 cell line; [7]
  Combination:Monotherapy IC50 Ratio: 0.84
  IC50: 256 nM
MOML-13 cell line; [8]
  IC50: 84.6 nM
  Combination:Monotherapy IC50 Ratio: 0.39
MOML-13 cell line; [9]
  IC50: 84.9 nM
  Combination:Monotherapy IC50 Ratio: 0.39
MOML-13 cell line; [10]
  IC50: 121 nM
  Combination:Monotherapy IC50 Ratio: 0.56
MOML-13 cell line; [11]
  IC50: 65 nM
  Combination:Monotherapy IC50 Ratio: 0.30
MOML-13 cell line; [12]
  IC50: 154 nM
  Combination:Monotherapy IC50 Ratio: 0.71
MOML-13 cell line; [13]
  IC50: 113 nM
  Combination:Monotherapy IC50 Ratio: 0.52
MV4; 11 cell line; [14]
  IC50: 114 nM
  Combination:Monotherapy IC50 Ratio: 0.46
MV4; 11 cell line; [15]
  IC50: 118 nM
  Combination:Monotherapy IC50 Ratio: 0.47
MV4; 11 cell line; fixed agent Decitabine - 30 nM
  IC50: 117 nM
  Combination:Monotherapy IC50 Ratio: 0.47
MV4; 11 cell line; [16]
  IC50: 91.5 nM
  Combination:Monotherapy IC50 Ratio: 0.36
MV4; 11 cell line; [13]
  IC50: 163 nM
  Combination:Monotherapy IC50 Ratio: 0.65
MV4; 11 cell line; [17]
  IC50: 118 nM
  Combination:Monotherapy IC50 Ratio: 0.47
